On the set-up of this assay: species or system patients. The note with it: in vivo.

On to `CCOC(=O)C1=C[C@@H](OC(CC)CC)[C@H](NC(C)=O)[C@@H](N)C1` [oseltamivir], for which the “Time to alleviation of symptoms, shorter in treated vs non‐treated patients” value came out at 1 days.

The record behind these values is PMC5820429 (Influenza and Other Respiratory Viruses, 2018).
